Measured values as given in publication PMC9785202, “Changes in Disposition of Ezetimibe and Its Active Metabolites Induced by Impaired Hepatic Function: The Influence of Enzyme and Transporter Activities” (Pharmaceutics, 2022).
Where two headings read alike, the source gives them in different places. Marks after values point to notes of the source that are not given here. One block for each molecule: values may come before it.

Key:
[1] = target: T1, OATP1B3 (Homo sapiens, UniProt Q9NPD5); assay: Inhibition of OATP1B3-mediated uptake in OATP1B3-transfected HEK293 cells by bile acids and rifampicin
T1 sequence (Q9NPD5 1-702): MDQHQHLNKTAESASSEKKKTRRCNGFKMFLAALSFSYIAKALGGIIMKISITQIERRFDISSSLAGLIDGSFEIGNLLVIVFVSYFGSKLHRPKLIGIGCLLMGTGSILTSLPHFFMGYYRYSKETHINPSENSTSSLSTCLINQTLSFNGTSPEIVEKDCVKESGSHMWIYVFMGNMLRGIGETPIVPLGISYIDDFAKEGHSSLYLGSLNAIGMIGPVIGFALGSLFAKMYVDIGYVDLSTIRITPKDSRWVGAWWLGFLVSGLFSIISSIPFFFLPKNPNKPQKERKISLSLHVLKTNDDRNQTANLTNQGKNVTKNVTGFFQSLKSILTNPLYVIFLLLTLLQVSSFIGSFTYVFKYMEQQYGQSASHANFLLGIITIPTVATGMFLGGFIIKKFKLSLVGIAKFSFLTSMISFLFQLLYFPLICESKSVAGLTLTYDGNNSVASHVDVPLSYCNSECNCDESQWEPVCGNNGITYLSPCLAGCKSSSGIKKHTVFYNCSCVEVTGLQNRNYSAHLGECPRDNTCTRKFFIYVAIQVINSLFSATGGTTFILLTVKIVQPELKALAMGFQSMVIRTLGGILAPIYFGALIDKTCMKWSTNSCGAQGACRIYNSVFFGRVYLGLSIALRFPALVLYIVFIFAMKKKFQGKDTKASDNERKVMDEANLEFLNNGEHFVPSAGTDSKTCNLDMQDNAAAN

[2] = Pharmacokinetics after intravenous or oral administration of 10 mg/kg EZE to control and CCl4-induced rats; format: in vivo; conditions: for AUC(0-t) / Cmax / Tmax / half-life: Sprague-Dawley, rat, plasma, 10 mg/kg
Method: Animals were fasted for 12 h with free access to water before the experiments. EZE was administered orally (prepared in 0.5% carboxymethylcellulose sodium) or intravenously (dissolved in 10% dimethyl sulfoxide, 10% tween-80, and 80% sterile H2O) to CCl4-induced rats (n = 5) and control rats (n = 5) at 10 mg/kg. Blood samples were collected from the retro-orbital venous plexus before administration (0 h), at 5, 15, and 30 min, and at 1, 2, 4, 6, 8, 12, 24, and 48 h after administration in tubes containing EDTA-2K. Plasma samples were harvested by centrifugation at 11,600 g for 5 min at 4 °C and then stored at −80 °C until further analysis.
A 25.0 μL aliquot of each sample and 25.0 μL of internal standard (50.0 ng/mL EZE-d4) were mixed with 100 μL of acetonitrile. After the samples were vortexed and centrifugated at 2250 g for 15 min, the supernatants were used to measure EZE and its metabolites by LC-MS/MS.
WinNonlin version 6.1 (Pharsight Corp., Cary, NC, USA) was used to calculate the pharmacokinetic parameters in a non-compartmental model. Statistical comparisons between the two groups were evaluated using a Student’s two-tailed unpaired t-test or the nonparametric Mann–Whitney test in GraphPad Prism (version 8.0, GraphPad Software Inc, SanDiego, CA, USA). A value of p < 0.05 was considered significant. All data were presented as the mean ± S.D. (n ≥ 3).

[3] = for Autosampler stability (4°C, 24 h), RE / Post-extraction stability (room temperature 3 h), RE / Freeze-thaw stability (−20°C, three cycles), RE / Short-term stability (room temperature 3 h), RE: n = 6; for Freeze-thaw stability (−20°C, three cycles), RE / Short-term stability (room temperature 3 h), RE: rat plasma
Method: The instrument parameters were as follows: ion spray voltage, −4500 V; source temperature, 550 °C; nebulizer gas, 60 psi; heater gas, 60 psi; and curtain gas, 40 psi. […] Data were acquired and processed with the Analyst 1.6.3 software (Applied Biosystems). The standard curve ranges were 1.00 to 1000 ng/mL for EZE, 3.00 to 3000 ng/mL for EZE-Ph, and 1.00 to 1000 ng/mL for EZE-Hy in plasma.
Summary of the stability of ezetimibe and its metabolites in rat plasma (n = 6).

[4] = tested on: rat primary hepatocytes; assay: Inhibition of EZE-Ph uptake into rat primary hepatocytes by bile acids and rifampicin; conditions: inhibitor 200 µmol/L, 10 μM EZE-Ph, 10 min
Method: Rat primary hepatocytes were isolated from male SD rats as previously described [34]. Fresh rat hepatocytes (120,000 per well) were cultured in Williams’ E medium (containing 0.1 μM dexamethasone, 5% fetal bovine serum, 1% penicillin G/streptomycin, 1% GlutaMAX-I, and 1% insulin–transferrin–selenium) on collagen I-coated 48-well plates. Rat hepatocytes cultured for 4 h under a carbogen atmosphere were directly used for uptake assays.
The hepatocytes were rinsed three times with HBSS (37 °C) and equilibrated in HBSS for 10 min. […] After 10 min of incubation, cells were quickly washed three times with ice-cold HBSS and then lysed by the addition of 300 μL of purified water. The protein content was measured using the BCA protein assay kit. EZE and EZE-Ph were analyzed by LC-MS/MS.
The rates of substrate uptake were normalized using the protein contents of cell lysates.

[5] = CCl4-induced hepatic failure rat model: liver index and serum ALT, AST, AKP; format: in vivo, Sprague–Dawley (SD) rats
Method: All animal studies were carried out according to the Guide for the Care and Use of Laboratory Animals of the Shanghai Institute of Materia Medica, Chinese Academy of Sciences. Male Sprague–Dawley (SD) rats weighing 180 to 220 g were randomized into two groups. The CCl4-induced model group was administered an intraperitoneal injection of CCl4 (20% in corn oil) at a dose of 2.5 mL/kg three times a week for 8 weeks. The control group was treated intraperitoneally with the same volume of corn oil at the same time intervals. Blood samples were collected and centrifuged at 11,600 g for 5 min to obtain serum samples for the determination of serum ALT, AST, and AKP.
Serum ALT, AST, and AKP were measured using the corresponding assay kits following the manufacturer’s instructions. Tissues fixed in 4% paraformaldehyde were embedded in paraffin, cut into slices with a 3 μm thickness, and stained with hematoxylin and eosin (H&E).

[6] = substrate: O=C(O)C1OC(Oc2ccc([C@@H]3[C@@H](CC[C@H](O)c4ccc(F)cc4)C(=O)N3c3ccc(F)cc3)cc2)C(O)C(O)C1O; assay: Uptake of EZE-Ph into OATP1B1-transfected HEK293 cells; format: in vitro ADME, human; conditions: other: OATP1B1 HEK293, uptake time 5 min; 37.0 °C
Method: (§1) The kinetic parameters and the half inhibitory concentration (IC50) were calculated using GraphPad Prism. […] The intrinsic clearance (CLint) was calculated as CLint = Vmax/Km.

[7] = substrate: O=C(O)C1OC(Oc2ccc([C@@H]3[C@@H](CC[C@H](O)c4ccc(F)cc4)C(=O)N3c3ccc(F)cc3)cc2)C(O)C(O)C1O; assay: Uptake of EZE-Ph into OATP2B1-transfected HEK293 cells; format: in vitro ADME, human; conditions: other: OATP2B1 HEK293, uptake time 5 min; 37.0 °C
Method: as §1

[8] = iv, i.v. 10 mg/kg EZE, CCl4-induced rats
[9] = iv, i.v. 10 mg/kg EZE, control rats
[10] = po, p.o. 10 mg/kg EZE, CCl4-induced rats
[11] = po, p.o. 10 mg/kg EZE, control rats
[12] = oral administration of 10 mg/kg EZE
[13] = CCl4-induced rats vs control rats
[14] = serum, CCl4-induced rats, n = 16

Molecule: O=C(O)[C@H]1O[C@@H](O[C@@H](CC[C@H]2C(=O)N(c3ccc(F)cc3)[C@@H]2c2ccc(O)cc2)c2ccc(F)cc2)[C@H](O)[C@@H](O)[C@@H]1O [EZE-Hy, ezetimibe hydroxy β-D-glucuronide]
AUC(0-t) [2, 8]: 4250 ± 2050 ng·h/mL | Cmax [2, 8]: 146 ± 42 ng/mL | Tmax [2, 8]: 11.2 ± 7.6 h | half-life [2, 8]: 15.3 ± 2.4 h | AUC(0-t) [2, 9]: 992 ± 392 ng·h/mL | Cmax [2, 9]: 36.9 ± 9.6 ng/mL | Tmax [2, 9]: 16.8 ± 6.6 h | half-life [2, 9]: 16.1 ± 7.6 h | AUC(0-t) [2, 10]: 1170 ± 418 ng·h/mL | Cmax [2, 10]: 38.1 ± 10.1 ng/mL | Tmax [2, 10]: 14.4 ± 5.4 h | AUC(0-t) [2, 11]: 463 ± 160 ng·h/mL | Cmax [2, 11]: 24.6 ± 9.9 ng/mL | Tmax [2, 11]: 12 h | AUC0–t, fold higher in CCl4-induced rats than in control rats ([2]; intravenous injection of 10 mg/kg EZE): 4.3 fold | AUC0–t, fold higher in CCl4-induced rats than in control rats [2, 12]: 2.5 fold | share in plasma relative to the main circulating component EZE-Ph [2, 12]: 11% | Autosampler stability (4°C, 24 h), RE ([3]; HQC (800/2400/800 ng/ml)): 9.0% | Post-extraction stability (room temperature 3 h), RE ([3]; HQC (800/2400/800 ng/ml)): 5.2% | Autosampler stability (4°C, 24 h), RE ([3]; LQC (3.00/9.00/3.00 ng/ml)): 7.9% | Post-extraction stability (room temperature 3 h), RE ([3]; LQC (3.00/9.00/3.00 ng/ml)): 8.9% | stability in rat plasma under the test conditions ([3]; LQC and HQC samples, short-term, post-extraction, auto-sampler, three freeze/thaw cycles): stable | Freeze-thaw stability (−20°C, three cycles), RE ([3]; HQC (800/2400/800 ng/ml)): 2.0% | Short-term stability (room temperature 3 h), RE ([3]; HQC (800/2400/800 ng/ml)): -3.6% | Freeze-thaw stability (−20°C, three cycles), RE ([3]; LQC (3.00/9.00/3.00 ng/ml)): -0.1% | Short-term stability (room temperature 3 h), RE ([3]; LQC (EZE/EZE-Ph/EZE-Hy 3.00/9.00/3.00 ng/ml)): -6.9% | stability in blood ([3]; room temperature for 2 h): stable

Molecule: CO[C@H]1/C=C/O[C@@]2(C)Oc3c(C)c(O)c4c(O)c(c(/C=N/N5CCN(C)CC5)c(O)c4c3C2=O)NC(=O)/C(C)=C\C=C\[C@H](C)[C@H](O)[C@@H](C)[C@@H](O)[C@@H](C)[C@H](OC(C)=O)[C@@H]1C [rifampicin, reference compound]
EZE-Ph uptake by rat hepatocytes in the presence of inhibitor [4]: 12.0% | uptake of estradiol-17β-glucuronide in OATP1B3-expressing HEK293 cells in the presence of inhibitor ([1]; inhibitor 200 μM, substrate estradiol-17β-glucuronide): 3.89%

Molecule: C[C@H](CCC(=O)O)[C@H]1CC[C@H]2[C@@H]3[C@H](O)C[C@@H]4C[C@H](O)CC[C@]4(C)[C@H]3CC[C@]12C [CDCA, chenodeoxycholic acid]
IC50 [1]: 8.92 µM

Molecule: C[C@H](CCC(=O)O)[C@H]1CC[C@H]2[C@@H]3[C@H](O)C[C@@H]4C[C@H](O)CC[C@]4(C)[C@H]3C[C@H](O)[C@]12C [CA, cholic acid]
IC50 [1]: 121 µM

Molecule: ClC(Cl)(Cl)Cl [CCl4, Carbon tetrachloride]
serum AKP, fold higher than in control rats [5, 13]: 3.86 fold | serum ALT, fold higher than in control rats [5, 13]: 8.62 fold | serum AST, fold higher than in control rats [5, 13]: 5.76 fold | Liver weight/body weight ([5]; CCl4-induced rats, 8 weeks of treatment, n = 16): 37.9 ± 5.9 ^c | AKP [5, 14]: 9887 ± 1633 ^d U/L | ALT [5, 14]: 112 ± 33 ^d U/L | AST [5, 14]: 125 ± 34 ^d U/L

B1: OATP1B1 (Homo sapiens) (protein)
chain: MDQNQHLNKTAEAQPSENKKTRYCNGLKMFLAALSLSFIAKTLGAIIMKSSIIHIERRFEISSSLVGFIDGSFEIGNLLVIVFVSYFGSKLHRPKLIGIGCFIMGIGGVLTALPHFFMGYYRYSKETNINSSENSTSTLSTCLINQILSLNRASPEIVGKGCLKESGSYMWIYVFMGNMLRGIGETPIVPLGLSYIDDFAKEGHSSLYLGILNAIAMIGPIIGFTLGSLFSKMYVDIGYVDLSTIRITPTDSRWVGAWWLNFLVSGLFSIISSIPFFFLPQTPNKPQKERKASLSLHVLETNDEKDQTANLTNQGKNITKNVTGFFQSFKSILTNPLYVMFVLLTLLQVSSYIGAFTYVFKYVEQQYGQPSSKANILLGVITIPIFASGMFLGGYIIKKFKLNTVGIAKFSCFTAVMSLSFYLLYFFILCENKSVAGLTMTYDGNNPVTSHRDVPLSYCNSDCNCDESQWEPVCGNNGITYISPCLAGCKSSSGNKKPIVFYNCSCLEVTGLQNRNYSAHLGECPRDDACTRKFYFFVAIQVLNLFFSALGGTSHVMLIVKIVQPELKSLALGFHSMVIRALGGILAPIYFGALIDTTCIKWSTNNCGTRGSCRTYNSTSFSRVYLGLSSMLRVSSLVLYIILIYAMKKKYQEKDINASENGSVMDEANLESLNKNKHFVPSAGADSETHC
notes: host or cells: HEK293
Km [6]: 91.5 µM | Vmax [6]: 5.17e-05 µmol/min/mg | Vmax/Km [6]: 0.56 µL/min/mg

B2: OATP2B1 (Homo sapiens) (protein)
chain: MGPRIGPAGEVPQVPDKETKATMGTENTPGGKASPDPQDVRPSVFHNIKLFVLCHSLLQLAQLMISGYLKSSISTVEKRFGLSSQTSGLLASFNEVGNTALIVFVSYFGSRVHRPRMIGYGAILVALAGLLMTLPHFISEPYRYDNTSPEDMPQDFKASLCLPTTSAPASAPSNGNCSSYTETQHLSVVGIMFVAQTLLGVGGVPIQPFGISYIDDFAHNSNSPLYLGILFAVTMMGPGLAFGLGSLMLRLYVDINQMPEGGISLTIKDPRWVGAWWLGFLIAAGAVALAAIPYFFFPKEMPKEKRELQFRRKVLAVTDSPARKGKDSPSKQSPGESTKKQDGLVQIAPNLTVIQFIKVFPRVLLQTLRHPIFLLVVLSQVCLSSMAAGMATFLPKFLERQFSITASYANLLIGCLSFPSVIVGIVVGGVLVKRLHLGPVGCGALCLLGMLLCLFFSLPLFFIGCSSHQIAGITHQTSAHPGLELSPSCMEACSCPLDGFNPVCDPSTRVEYITPCHAGCSSWVVQDALDNSQVFYTNCSCVVEGNPVLAGSCDSTCSHLVVPFLLLVSLGSALACLTHTPSFMLILRGVKKEDKTLAVGIQFMFLRILAWMPSPVIHGSAIDTTCVHWALSCGRRAVCRYYNNDLLRNRFIGLQFFFKTGSVICFALVLAVLRQQDKEARTKESRSSPAVEQQLLVSGPGKKPEDSRV
notes: host or cells: HEK293
Km [7]: 119 µM | Vmax [7]: 6.69e-05 µmol/min/mg | Vmax/Km [7]: 0.56 µL/min/mg

The next lines start with the values.

IC50 [1]: 25.5 µM
Molecule: C[C@H](CCC(=O)O)[C@H]1CC[C@H]2[C@@H]3[C@@H](O)C[C@@H]4C[C@H](O)CC[C@]4(C)[C@H]3CC[C@]12C [UDCA, ursodeoxycholic acid]

IC50 [1]: 46.1 µM
Molecule: C[C@H](CCC(=O)NCC(=O)O)[C@H]1CC[C@H]2[C@@H]3[C@@H](O)C[C@@H]4C[C@H](O)CC[C@]4(C)[C@H]3CC[C@]12C [GUDCA, glycoursodeoxycholic acid]

IC50 [1]: 26 µM
Molecule: C[C@H](CCC(=O)NCCS(=O)(=O)O)[C@H]1CC[C@H]2[C@@H]3[C@@H](O)C[C@@H]4C[C@H](O)CC[C@]4(C)[C@H]3CC[C@]12C [TUDCA, tauroursodeoxycholic acid]

IC50 [1]: 15.1 µM
Molecule: CC(CCC(=O)NCC(=O)O)C1CCC2C3C(O)CC4CC(O)CCC4(C)C3CCC12C (stereo not drawn) [GCDCA, glycochenodeoxycholic acid]
